Like-named read-outs stand apart in the source and are kept apart here. Each block holds one compound with its values, some of them ahead of it.
Experiments:
[1] = tested on: patients with HR+, HER2- or HER2+ metastatic breast cancer; experiment: Patient disposition and dose adjustments; conditions: Part G, with abemaciclib and fulvestrant
[2] = Plasma pharmacokinetics, noncompartmental analysis (LC-MS/MS); format: in vivo, human
Procedure: In parts E, F, and H, PK sampling was performed for all analytes pre-dose on Cycle 1 Day 1, Cycle 1 Day 15, and Cycle 2 Day 1, as well as at 1, 2, 4, 6, 8, and 10 hours after dosing on Cycle 1 Day 1 and Cycle 2 Day 1. In Part H, PK sampling was performed for all analytes pre-dose on Cycle 1 Day 1, Cycle 1 Day 15, and Cycle 2 Day 1, as well as at 1, 2, 4, 6, 8, and 10 hours after dosing on Cycle 1 Day 1 and 2, 4, 6, 8, and 10 hours after dosing on Cycle 2 Day 1. In Parts F and H, additional samples were drawn pre-dose on Day 1 of Cycles 3–5 and after trastuzumab infusion on Day 1 of Cycles 1–5. In part H, additional samples were also drawn after pertuzumab infusion on Day 1 Cycle 4 and 5. In Part G, an additional pre-dose sample was drawn on Cycle 3 Day 1, and fulvestrant samples were obtained pre-dose on Day 1 of Cycles 1–3 and Day 15 of Cycle 1.
Samples were analyzed for abemaciclib (and its metabolites), exemestane, everolimus, fulvestrant, LY3023414, and pertuzumab using a validated liquid chromatography-tandem mass spectrometry method (abemaciclib and metabolites: Q^2 solutions, Ithaca, NY, USA; exemestane and everolimus: BASi, West Lafayette, IN, USA; fulvestrant: Charles River Laboratories, Montreal, Quebec, Canada; LY3023414: Covance Laboratories Inc, Madison, WI, USA; pertuzumab: Altasciences Company Inc., Quebec, Canada). Trastuzumab was analyzed using a validated Gyrolab xP method (PPD, Richmond, VA, USA).
Standard noncompartmental PK parameters were computed using Phoenix WinNonlin 64 Build 8.0/8.1 (Pharsight Corporation, Mountain View, CA, USA). This analysis included estimation of Cmax, tmax, Clast, tlast, and AUC0-tlast. AUC calculations were performed using the log linear trapezoidal method.

HER2+ breast cancer = conditions: abemaciclib combined with fulvestrant and trastuzumab versus standard of care chemotherapy plus trastuzumab; cited from earlier work
[3] = tested on: HR+ advanced breast cancer; parameters: method as in PMID 32887722; conditions: in combination with ribociclib and fulvestrant; cited from earlier work
[4] = tested on: PIK3CA-mutated, HR+, HER2- ABC; parameters: method as in doi:10.1158/1538-7445.SABCS23-GS03-13; conditions: with fulvestrant and palbociclib, first-line treatment; cited from earlier work

LY3023414 dose adjustments ([1]; 12 patients): 10 patients | LY3023414 dose omission ([1]; 12 patients): eight | LY3023414 dose reduction ([1]; 12 patients): seven
SMILES: CO[C@@H](C)Cn1c(=O)n(C)c2cnc3ccc(-c4cncc(C(C)(C)O)c4)cc3c21 [LY3023414]
Additional patients who discontinued LY3023414 due to AEs [1]: two

mean accumulation ratio (based on Cmax) ([2]; Part E Cohort 1, abemaciclib 150 mg Q12H with exemestane + everolimus): 3.16 | mean AUC0-tlast ([2]; Part E Cohort 1, multiple doses abemaciclib 150 mg Q12H with exemestane + everolimus): 3280 hr^*ng/mL | mean AUC0-tlast ([2]; Part E Cohort 1, single dose abemaciclib 150 mg with exemestane + everolimus): 771 hr^*ng/mL | mean AUC0-tlast ([2]; Part E Cohort 2, single dose abemaciclib 200 mg with exemestane + everolimus): 984 hr^*ng/mL | accumulation ratio based on Cmax ([2]; Part F, abemaciclib 150 mg Q12H with trastuzumab): 2.13 | mean AUC0-tlast ([2]; Part H, single dose abemaciclib 100 mg with trastuzumab and pertuzumab): 343 hr^*ng/mL | Effect on the pharmacokinetics of the combination study drugs ([2]; Parts E–H): no effect | Abemaciclib exposures compared with monotherapy PK data ([2]; all combination therapies tested): consistent with monotherapy PK data | Cmax ([2]; human, plasma, oral, 100 mg, Part H, single dose abemaciclib 100 mg with trastuzumab and pertuzumab, read-out: mean Cmax): 0.0715 µg/mL | Cmax ([2]; human, plasma, oral, 150 mg, Part E Cohort 1, multiple doses abemaciclib 150 mg Q12H with exemestane + everolimus, read-out: mean Cmax): 0.452 µg/mL | Cmax ([2]; human, plasma, oral, 150 mg, Part E Cohort 1, single dose abemaciclib 150 mg with exemestane + everolimus, plasma, read-out: mean Cmax): 0.157 µg/mL | Cmax ([2]; human, plasma, oral, 150 mg, Part F, abemaciclib 150 mg Q12H with trastuzumab, read-out: steady-state mean Cmax): 0.242 µg/mL | Cmax ([2]; human, plasma, oral, 200 mg, Part E Cohort 2, single dose abemaciclib 200 mg with exemestane + everolimus, plasma, read-out: mean Cmax): 0.191 µg/mL | Cmax ([2]; human, plasma, oral, Part F, single dose abemaciclib (150 mg or 200 mg) with trastuzumab, range over dose cohorts, read-out: mean Cmax): 0.133 to 0.148 µg/mL | Cmax ([2]; human, plasma, oral, Part G, single dose 150 mg abemaciclib with 500 mg fulvestrant and 100 mg or 150 mg LY3023414, range over cohorts, read-out: abemaciclib mean Cmax): 0.131 to 0.139 µg/mL | AUC(0-t) ([2]; human, plasma, oral, Part F, abemaciclib 150 mg Q12H with trastuzumab, read-out: steady-state mean AUC0-tlast): 1.66 µg·h/mL
SMILES: CCN1CCN(Cc2ccc(Nc3ncc(F)c(-c4cc(F)c5nc(C)n(C(C)C)c5c4)n3)nc2)CC1 [abemaciclib]
Progression-free survival (HER2+ breast cancer): significantly improved

SMILES: Cc1nc(NC(=O)N2CCC[C@H]2C(N)=O)sc1-c1ccnc(C(C)(C)C(F)(F)F)c1 [alpelisib]
Feasibility of the combination [3]: not to be feasible due to toxicity

SMILES: Nc1cc(C(F)(F)F)c(-c2cc(N3CCOCC3)nc(N3CCOCC3)n2)cn1 [buparlisib]
Feasibility of the combination [3]: not to be feasible due to toxicity

SMILES: C[C@H](Nc1ccc2c(c1)OCCn1cc(N3C(=O)OC[C@H]3C(F)F)nc1-2)C(N)=O [inavolisib]
Progression-free survival [4]: statistically significant improvement

Reference: article PMC11937066, “Abemaciclib in combination with therapies for patients with metastatic breast cancer: a phase 1b study” (Frontiers in Oncology, 2025)
